Values quoted from earlier work as cited in patent US7105176B2, “Production of solid preparations of water-soluble, sparingly water-soluble or water-insoluble active compounds” (BASF Aktiengesellschaft, priority 2000, dated 2006).

Conditions: at 314 nm

extinction coefficient: > 1500
SMILES: CCCCC(CC)COC(=O)c1ccc(Nc2nc(Nc3ccc(C(=O)OCC(CC)CCCC)cc3)nc(Nc3ccc(C(=O)OCC(CC)CCCC)cc3)n2)cc1 (stereo not shown) [Uvinul® T150, 2,4,6-trianilino-p-(carbo-2′-ethylhexyl-1′-oxy)-1,3,5-triazine]
